Experimental data published in ChEMBL document CHEMBL4130392, “Eugenol derived immunomodulatory molecules against visceral leishmaniasis” (Eur J Med Chem, 2017).

Legend:
RAW264.7 = assay: Cytotoxicity against mouse RAW264.7 cells after 48 hrs by MTT assay; format: cell-based; details: RAW264.7, 48 h
Leishmania donovani [1] = assay: Antileishmanial activity against Leishmania donovani MHOM/IN/AG/83 promastigotes after 48 hrs by MTT assay; format: functional, organism-based; details: MHOM/IN/AG/83, 48 h
Peritoneal macrophage [2] = assay: Induction of NO generation in Leishmania donovani MHOM/IN/AG/83 infected BALB/c mouse peritoneal macrophages assessed as nitrite levels after 48 hrs by Griess assay relative to untreated control; format: functional; also: test concentration or dose not given here
Leishmania donovani [3] = assay: Antileishmanial activity against Leishmania donovani MHOM/IN/AG/83 amastigotes infected in BALB/c mouse peritoneal macrophages after 42 hrs by Giemsa staining-based microscopic analysis; format: functional, organism-based; details: MHOM/IN/AG/83, 42 h
[4] = Therapeutic index, ratio of IC50 for mouse RAW264.7 cells to IC50 for Leishmania donovani MHOM/IN/AG/83 promastigotes; format: toxicity; details: read-out: Ratio IC50
Peritoneal macrophage [5] = assay: Cytotoxicity against BALB/c mouse peritoneal macrophages after 48 hrs by MTT assay; format: cell-based
[6] = Therapeutic index, ratio of EC50 for BALB/c mouse peritoneal macrophages to EC50 for Leishmania donovani MHOM/IN/AG/83 amastigotes; format: toxicity; details: read-out: Ratio EC50

SMILES	EC50 (Leishmania donovani [3]) [µM]	IC50 (RAW264.7) [µM]	IC50 (Leishmania donovani [1]) [µM]	Activity (Peritoneal macrophage [2])	Activity (Peritoneal macrophage [2]; record 2) [µM]	selectivity ratio [4]	EC50 (Peritoneal macrophage [5]) [µM]	selectivity ratio [6]
C=CCc1ccc(OC(C)=O)c(OC)c1 [EUGENYL ACETATE]	99.1	356	166	Dose-dependent effect	12.44	2.15	352	3.59
C=CCc1ccc(OCC=C(C)C)c(OC)c1	157	359	242	Dose-dependent effect	8.37	1.48	372	2.38
C=CCc1ccc(OC)c(OC)c1 [METHYLEUGENOL]	203	517	475	Dose-dependent effect	10.82	1.09	485	2.39
C=CCc1ccc(OCCCCC)c(OC)c1	83.4	178	90.8	Dose-dependent effect	12.95	1.96	164	1.97
C=CCc1ccc(OC(=O)[C@@H]2CCCN2)c(OC)c1	72.9	278	97.4	Dose-dependent effect	21.87	2.87	326	4.49
C=CCc1ccc(OC(=O)CC)c(OC)c1	112	448	146	Dose-dependent effect	12.19	3.1	429	3.86
C=CCc1ccc(OC(=O)CCCCC)c(OC)c1	101	517	162	Dose-dependent effect	18.29	3.21	477	4.76
C=CCc1ccc(OC(=O)CCCC)c(OC)c1	65.6	368	106	Dose-dependent effect	24.39	3.49	353	5.41
C=CCc1ccc(OC(=O)CCC)c(OC)c1	72.1	233	64.5	Dose-dependent effect	23.08	3.61	191	2.71
C=CCc1ccc(OCCC)c(OC)c1 [PROPYLEUGENOL]	156	110	133	Dose-dependent effect	10.64	0.83	111	0.71
C=CCc1ccc(OC(=O)C2CCNCC2)c(OC)c1	66.3	261	89	Dose-dependent effect	21.55	2.96	307	4.66
C=CCc1ccc(OCC)c(OC)c1 [ETHYLEUGENOL]	162	102	71.7	Dose-dependent effect	10.43	1.43	90.5	0.55
C=CCc1ccc(OC(=O)c2ccc(F)cc2)c(OC)c1	78.4	364	61.3	Dose-dependent effect	14.56	5.93	400	5.24

Stronger by EC50 (Leishmania donovani [3]), values ahead:

EC50 (Leishmania donovani [3]) [µM]	SMILES	IC50 (RAW264.7) [µM]	IC50 (Leishmania donovani [1]) [µM]	Activity (Peritoneal macrophage [2])	Activity (Peritoneal macrophage [2]; record 2) [µM]	selectivity ratio [4]	EC50 (Peritoneal macrophage [5]) [µM]	selectivity ratio [6]
33.1	C=CCc1ccc(OC(=O)CCCCCCCCC)c(OC)c1	373	67.5	Dose-dependent effect	27.31	5.66	404	12.4
26	C=CCc1ccc(OCCCCCCCCCCCC)c(OC)c1	299	52.5	Dose-dependent effect	28.12	5.76	292	11.4
41.1	C=CCc1ccc(OCCCCCCC)c(OC)c1	198	61.3	Dose-dependent effect	22.43	3.28	197	4.88
19.6	C=CCc1ccc(OC(=O)CCCCCCCCCCC)c(OC)c1	529	56.2	Dose-dependent effect	34.28	9.36	498	25.9
6.4	CCCCCCCCCCCCCCCCOP(=O)([O-])OCC[N+](C)(C)C [MILTEFOSINE]	44.8	10.4	Dose-dependent effect	26.01	4.3	40.7	6.34
29	C=CCc1ccc(OCCCCCCCCCC)c(OC)c1	412	49.9	Dose-dependent effect	26.17	8.61	272	9.67
17.1	C=CCc1ccc(OCCCCCCCCCCCCCCCC)c(OC)c1	292	58.1	Dose-dependent effect	29.1	5.02	251	14.5
26.7	C=CCc1ccc(OC(=O)c2ccc([N+](=O)[O-])cc2)c(OC)c1	261	82.4	Dose-dependent effect	27.28	3.18	244	9.21
8.54	C=CCc1ccc(OC(=O)CCCCCCCCCCCCCCC)c(OC)c1	374	43.3	Dose-dependent effect	39.42	8.56	357	42.2
25.3	C=CCc1ccc(OC(=O)c2c[nH]c3ccccc23)c(OC)c1	485	60.5	Dose-dependent effect	26.24	8.11	496	19.7
51.8	C=CCc1ccc(OCCCCCCCCC)c(OC)c1	332	81.9	Dose-dependent effect	25.19	4.27	326	6.47
